{
  "source": "ChEMBL document CHEMBL4145533",
  "about": "“6,7-Dimorpholinoalkoxy quinazoline derivatives as potent EGFR inhibitors with enhanced antiproliferative activities against tumor cells” (Eur J Med Chem, 2018)",
  "key": {"HCC827": {"test_system": "HCC827", "assay": "Antiproliferative activity against human HCC827 cells harboring EGFR E746-A750 del mutant after 72 hrs by MTT assay", "assay_type": "functional, cell-based", "conditions": "HCC827, 72 h"}, "NCI-H1975": {"test_system": "NCI-H1975", "assay": "Antiproliferative activity against human NCI-H1975 cells harboring EGFR L858R/T790M double mutant after 72 hrs by MTT assay", "assay_type": "functional, cell-based", "conditions": "NCI-H1975, 72 h"}, "SW480": {"test_system": "SW480", "assay": "Antiproliferative activity against human SW480 cells harboring wild type EGFR after 72 hrs by MTT assay", "assay_type": "functional, cell-based", "conditions": "SW480, 72 h"}, "[1]": {"biological_target": "T1, Epidermal growth factor receptor (Homo sapiens, UniProt P00533)", "T1 sequence (P00533 whole entry)": "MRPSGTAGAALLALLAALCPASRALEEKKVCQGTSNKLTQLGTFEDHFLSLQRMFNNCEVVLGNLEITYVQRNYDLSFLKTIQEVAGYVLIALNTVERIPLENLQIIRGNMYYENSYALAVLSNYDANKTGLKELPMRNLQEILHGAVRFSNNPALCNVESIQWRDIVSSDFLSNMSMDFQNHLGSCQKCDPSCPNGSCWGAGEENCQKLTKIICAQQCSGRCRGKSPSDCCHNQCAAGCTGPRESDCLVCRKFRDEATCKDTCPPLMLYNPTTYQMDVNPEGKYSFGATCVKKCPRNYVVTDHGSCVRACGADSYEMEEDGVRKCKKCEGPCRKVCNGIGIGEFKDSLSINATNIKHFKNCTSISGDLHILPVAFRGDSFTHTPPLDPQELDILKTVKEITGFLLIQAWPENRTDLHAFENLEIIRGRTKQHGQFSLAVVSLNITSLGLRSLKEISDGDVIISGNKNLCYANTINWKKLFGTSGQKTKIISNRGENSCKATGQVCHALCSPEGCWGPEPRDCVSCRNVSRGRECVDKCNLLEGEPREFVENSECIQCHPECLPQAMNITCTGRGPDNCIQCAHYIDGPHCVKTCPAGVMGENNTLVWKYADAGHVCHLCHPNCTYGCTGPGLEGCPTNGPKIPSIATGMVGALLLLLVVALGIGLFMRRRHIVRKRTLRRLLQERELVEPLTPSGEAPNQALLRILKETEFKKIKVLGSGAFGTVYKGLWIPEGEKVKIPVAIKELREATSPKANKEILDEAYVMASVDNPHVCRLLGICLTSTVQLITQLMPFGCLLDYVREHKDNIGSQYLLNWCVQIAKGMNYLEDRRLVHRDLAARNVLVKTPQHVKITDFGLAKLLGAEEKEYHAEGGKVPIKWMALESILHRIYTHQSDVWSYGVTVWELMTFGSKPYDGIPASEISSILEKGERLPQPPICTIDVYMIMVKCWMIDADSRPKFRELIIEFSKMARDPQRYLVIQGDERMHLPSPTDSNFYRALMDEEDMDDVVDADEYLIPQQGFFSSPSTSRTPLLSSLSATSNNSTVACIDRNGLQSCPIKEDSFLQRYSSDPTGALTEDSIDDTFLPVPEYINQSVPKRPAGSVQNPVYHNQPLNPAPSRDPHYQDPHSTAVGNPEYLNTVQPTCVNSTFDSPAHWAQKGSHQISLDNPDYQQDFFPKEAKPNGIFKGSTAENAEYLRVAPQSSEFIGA", "assay_type": "cell-based, HEK293", "description": "Inhibition of recombinant human N-terminal His-tagged EGFR (1 to 645 residues) expressed in HEK293 cells by ELISA"}, "[2]": {"biological_target": "Epidermal growth factor receptor (Homo sapiens, UniProt P00533, L858R/T790M)", "sequence (P00533 25-1210 T790M/L858R limits assumed)": "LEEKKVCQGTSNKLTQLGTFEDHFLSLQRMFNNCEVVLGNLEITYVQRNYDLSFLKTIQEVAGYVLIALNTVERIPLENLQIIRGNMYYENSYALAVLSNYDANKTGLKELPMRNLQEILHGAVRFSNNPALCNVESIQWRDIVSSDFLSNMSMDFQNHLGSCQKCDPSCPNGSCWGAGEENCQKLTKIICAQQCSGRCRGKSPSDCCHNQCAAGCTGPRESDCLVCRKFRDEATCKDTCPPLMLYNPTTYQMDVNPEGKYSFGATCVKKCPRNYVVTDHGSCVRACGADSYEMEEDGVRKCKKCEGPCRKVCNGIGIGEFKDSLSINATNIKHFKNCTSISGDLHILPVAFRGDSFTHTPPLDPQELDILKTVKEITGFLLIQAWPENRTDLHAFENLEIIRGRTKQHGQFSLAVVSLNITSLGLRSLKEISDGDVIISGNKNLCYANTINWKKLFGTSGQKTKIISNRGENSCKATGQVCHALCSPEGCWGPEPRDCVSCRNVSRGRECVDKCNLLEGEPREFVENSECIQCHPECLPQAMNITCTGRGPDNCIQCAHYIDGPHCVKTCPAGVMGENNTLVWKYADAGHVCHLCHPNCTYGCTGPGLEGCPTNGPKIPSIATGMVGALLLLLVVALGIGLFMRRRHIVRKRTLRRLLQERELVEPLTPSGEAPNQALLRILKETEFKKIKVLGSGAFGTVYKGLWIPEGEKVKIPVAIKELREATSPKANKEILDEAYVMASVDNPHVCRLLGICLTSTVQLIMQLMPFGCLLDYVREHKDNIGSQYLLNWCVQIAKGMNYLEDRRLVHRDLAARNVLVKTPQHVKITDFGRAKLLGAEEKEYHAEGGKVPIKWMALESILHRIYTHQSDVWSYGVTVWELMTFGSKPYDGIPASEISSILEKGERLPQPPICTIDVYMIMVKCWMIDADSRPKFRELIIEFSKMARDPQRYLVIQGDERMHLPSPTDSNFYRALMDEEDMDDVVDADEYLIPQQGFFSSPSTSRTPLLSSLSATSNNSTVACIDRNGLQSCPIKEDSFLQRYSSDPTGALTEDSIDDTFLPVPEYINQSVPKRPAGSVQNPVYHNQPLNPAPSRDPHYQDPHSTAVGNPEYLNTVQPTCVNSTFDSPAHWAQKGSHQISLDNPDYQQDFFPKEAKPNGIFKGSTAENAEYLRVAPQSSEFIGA", "assay": "Inhibition of EGFR L858R/T790M double mutant (unknown origin) using ULight-poly GT as substrate preincubated for 30 mins followed by substrate addition measured after 1 hr by spectrophotometric method"}, "[3]": {"biological_target": "Epidermal growth factor receptor (Homo sapiens, UniProt P00533, T790M)", "sequence (P00533 25-1210 T790M limits assumed)": "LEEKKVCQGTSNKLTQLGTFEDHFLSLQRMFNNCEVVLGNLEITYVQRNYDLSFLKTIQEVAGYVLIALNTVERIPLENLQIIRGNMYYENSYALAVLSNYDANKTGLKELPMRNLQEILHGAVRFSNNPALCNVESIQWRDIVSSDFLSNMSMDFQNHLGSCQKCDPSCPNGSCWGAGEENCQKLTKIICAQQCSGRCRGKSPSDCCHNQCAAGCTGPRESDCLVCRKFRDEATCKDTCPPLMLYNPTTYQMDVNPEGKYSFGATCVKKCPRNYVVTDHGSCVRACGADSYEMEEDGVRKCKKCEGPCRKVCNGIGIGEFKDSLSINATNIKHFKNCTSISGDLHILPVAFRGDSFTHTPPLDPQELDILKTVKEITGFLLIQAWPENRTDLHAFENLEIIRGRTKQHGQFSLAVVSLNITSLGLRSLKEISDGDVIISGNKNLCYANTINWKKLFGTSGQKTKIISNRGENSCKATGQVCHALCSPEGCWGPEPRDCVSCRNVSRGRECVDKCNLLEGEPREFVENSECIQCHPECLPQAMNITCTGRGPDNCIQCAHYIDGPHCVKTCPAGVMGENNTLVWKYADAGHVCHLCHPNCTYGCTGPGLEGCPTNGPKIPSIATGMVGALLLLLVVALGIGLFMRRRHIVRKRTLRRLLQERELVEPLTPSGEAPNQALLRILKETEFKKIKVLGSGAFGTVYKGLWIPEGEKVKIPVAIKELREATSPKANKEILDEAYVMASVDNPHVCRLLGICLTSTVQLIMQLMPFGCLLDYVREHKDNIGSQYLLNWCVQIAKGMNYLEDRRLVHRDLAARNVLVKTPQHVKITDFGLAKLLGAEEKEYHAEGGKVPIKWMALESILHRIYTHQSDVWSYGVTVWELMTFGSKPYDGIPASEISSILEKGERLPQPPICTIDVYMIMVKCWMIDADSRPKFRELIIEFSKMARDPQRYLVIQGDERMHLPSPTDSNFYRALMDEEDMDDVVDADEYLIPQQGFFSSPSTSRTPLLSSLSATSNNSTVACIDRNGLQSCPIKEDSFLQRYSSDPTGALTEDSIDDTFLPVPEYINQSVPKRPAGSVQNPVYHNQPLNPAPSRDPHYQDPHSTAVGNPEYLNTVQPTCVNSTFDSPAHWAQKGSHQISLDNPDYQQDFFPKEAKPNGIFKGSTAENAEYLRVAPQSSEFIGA", "assay": "Inhibition of EGFR T790M mutant (unknown origin) preincubated for 10 mins followed by TK substrate-botion addition measured after 1 hr by spectrophotometric method"}, "[4]": {"biological_target": "T1, Epidermal growth factor receptor", "assay": "Inhibition of EGF-induced EGFR phosphorylation at Y1086 residue in human A549 cells at 0.2 uM preincubated for 2 hrs followed by EGF stimulation measured after 10 mins by Western blot analysis", "assay_type": "cell-based"}, "A549 [5]": {"test_system": "A549", "assay": "Effect on total EGFR protein expression in human A549 cells at 0.2 to 5 uM after 2 hrs by Western blot analysis", "assay_type": "ADME, cell-based", "conditions": "a549, 2 h"}, "A549 [6]": {"test_system": "A549", "assay": "Effect on total Erk1/2 protein expression in human A549 cells at 0.2 to 5 uM after 2 hrs by Western blot analysis", "assay_type": "ADME, cell-based", "conditions": "a549, 2 h"}, "[7]": {"biological_target": "T1, Epidermal growth factor receptor", "assay": "Inhibition of EGF-induced EGFR activation in human A549 cells assessed as reduction in STAT3 phosphorylation at 0.2 to 5 uM preincubated for 2 hrs followed by EGF stimulation measured after 10 mins by Western blot analysis", "assay_type": "cell-based"}, "[8]": {"test_system": "Epidermal growth factor receptor (Homo sapiens), P00533 [L858R,T790M]", "sequence (P00533 whole entry T790M/L858R, looked up)": "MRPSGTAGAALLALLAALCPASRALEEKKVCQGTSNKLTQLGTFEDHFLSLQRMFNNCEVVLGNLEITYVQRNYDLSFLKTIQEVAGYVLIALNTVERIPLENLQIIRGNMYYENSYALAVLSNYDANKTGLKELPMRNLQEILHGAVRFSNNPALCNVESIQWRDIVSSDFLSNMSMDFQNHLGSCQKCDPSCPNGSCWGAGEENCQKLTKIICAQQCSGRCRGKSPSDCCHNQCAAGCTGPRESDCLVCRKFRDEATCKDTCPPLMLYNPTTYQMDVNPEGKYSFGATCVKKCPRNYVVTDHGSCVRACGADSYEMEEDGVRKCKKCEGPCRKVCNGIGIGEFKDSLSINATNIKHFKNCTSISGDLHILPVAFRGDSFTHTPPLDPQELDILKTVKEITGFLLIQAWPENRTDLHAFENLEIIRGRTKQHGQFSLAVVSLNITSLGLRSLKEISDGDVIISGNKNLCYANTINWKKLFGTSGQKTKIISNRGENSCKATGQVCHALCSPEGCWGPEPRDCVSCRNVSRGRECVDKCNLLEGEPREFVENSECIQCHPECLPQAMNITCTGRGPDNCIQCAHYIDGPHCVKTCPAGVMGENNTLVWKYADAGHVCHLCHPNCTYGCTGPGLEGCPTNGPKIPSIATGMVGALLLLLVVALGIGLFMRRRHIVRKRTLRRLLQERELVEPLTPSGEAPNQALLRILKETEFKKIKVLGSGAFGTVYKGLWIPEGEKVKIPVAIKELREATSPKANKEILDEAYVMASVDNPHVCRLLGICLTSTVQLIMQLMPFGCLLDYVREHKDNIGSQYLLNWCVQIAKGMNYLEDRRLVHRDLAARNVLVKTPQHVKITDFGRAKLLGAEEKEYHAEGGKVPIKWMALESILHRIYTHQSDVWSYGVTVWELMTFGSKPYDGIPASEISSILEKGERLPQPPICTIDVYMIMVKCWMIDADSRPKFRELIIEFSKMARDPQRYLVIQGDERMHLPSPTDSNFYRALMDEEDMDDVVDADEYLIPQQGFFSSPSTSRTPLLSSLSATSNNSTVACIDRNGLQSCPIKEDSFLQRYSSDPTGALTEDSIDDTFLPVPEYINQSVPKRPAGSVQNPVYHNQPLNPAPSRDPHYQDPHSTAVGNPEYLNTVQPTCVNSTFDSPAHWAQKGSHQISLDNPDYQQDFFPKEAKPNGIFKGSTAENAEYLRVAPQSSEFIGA", "assay": "Inhibition of EGF-induced EGFR L858R/T790M double mutant activation in human NCI-H1975 cells assessed as reduction in Akt phosphorylation at S473 residue at 5 uM preincubated for 2 hrs followed by EGF stimulation measured after 10 mins by Western blot analysis", "assay_type": "cell-based"}, "[9]": {"test_system": "Epidermal growth factor receptor (Homo sapiens), P00533 [L858R,T790M]", "assay": "Inhibition of EGF-induced EGFR L858R/T790M double mutant activation in human NCI-H1975 cells assessed as reduction in ERK1/2 phosphorylation at T202/Y204 residues at 5 uM preincubated for 2 hrs followed by EGF stimulation measured after 10 mins by Western blot analysis", "assay_type": "cell-based"}, "A549 [10]": {"test_system": "A549", "assay": "Induction of apoptosis in human A549 cells assessed as viable cells at 4 uM after 48 hrs by Annexin V-FITC/propidium iodide satining based FACS analysis (reference value: 95.87%)", "assay_type": "functional", "conditions": "A549, 48 h, read-out: Activity"}, "A549 [11]": {"test_system": "A549", "assay": "Induction of apoptosis in human A549 cells assessed as early apoptotic cells at 4 uM after 48 hrs by Annexin V-FITC/propidium iodide satining based FACS analysis (reference value: 2.78%)", "assay_type": "functional"}, "A549 [12]": {"test_system": "A549", "assay": "Induction of apoptosis in human A549 cells assessed as late apoptotic cells at 4 uM after 48 hrs by Annexin V-FITC/propidium iodide satining based FACS analysis (reference value: 1.21%)", "assay_type": "functional"}, "A549 [13]": {"test_system": "A549", "assay": "Induction of apoptosis in human A549 cells assessed as early apoptotic cells at 3 uM after 48 hrs by Annexin V-FITC/propidium iodide satining based FACS analysis (reference value: 2.78%)", "assay_type": "functional"}, "A549 [14]": {"test_system": "A549", "assay": "Induction of apoptosis in human A549 cells assessed as necrotic cells at 3 uM after 48 hrs by Annexin V-FITC/propidium iodide satining based FACS analysis (reference value: 0.14%)", "assay_type": "functional"}, "A549 [15]": {"test_system": "A549", "assay": "Induction of apoptosis in human A549 cells assessed as viable cells at 2 uM after 48 hrs by Annexin V-FITC/propidium iodide satining based FACS analysis (reference value: 95.87%)", "assay_type": "functional", "conditions": "A549, 48 h, read-out: Activity"}, "A549 [16]": {"test_system": "A549", "assay": "Induction of apoptosis in human A549 cells assessed as necrotic cells at 2 uM after 48 hrs by Annexin V-FITC/propidium iodide satining based FACS analysis (reference value: 0.14%)", "assay_type": "functional"}, "A549 [17]": {"test_system": "A549", "assay": "Induction of apoptosis in human A549 cells assessed as viable cells at 1 uM after 48 hrs by Annexin V-FITC/propidium iodide satining based FACS analysis (reference value: 95.87%)", "assay_type": "functional", "conditions": "A549, 48 h, read-out: Activity"}, "A549 [18]": {"test_system": "A549", "assay": "Induction of apoptosis in human A549 cells assessed as late apoptotic cells at 1 uM after 48 hrs by Annexin V-FITC/propidium iodide satining based FACS analysis (reference value: 1.21%)", "assay_type": "functional"}, "A549 [19]": {"test_system": "A549", "assay": "Induction of apoptosis in human A549 cells assessed as necrotic cells at 1 uM after 48 hrs by Annexin V-FITC/propidium iodide satining based FACS analysis (reference value: 0.14%)", "assay_type": "functional"}, "A549 [20]": {"test_system": "A549", "assay": "Cell cycle arrest in human A549 cells assessed as accumulation at G2/M phase at 5 uM after 48 hrs by propidium iodide satining based FACS analysis (reference value: 16.09%)", "assay_type": "functional"}, "A549 [21]": {"test_system": "A549", "assay": "Cell cycle arrest in human A549 cells assessed as accumulation at G0/G1 phase at 2 uM after 48 hrs by propidium iodide satining based FACS analysis (reference value: 48.87%)", "assay_type": "functional"}, "A549 [22]": {"test_system": "A549", "assay": "Cell cycle arrest in human A549 cells assessed as accumulation at S phase at 2 uM after 48 hrs by propidium iodide satining based FACS analysis (reference value: 34.45%)", "assay_type": "functional"}, "A549 [23]": {"test_system": "A549", "assay": "Cell cycle arrest in human A549 cells assessed as accumulation at G2/M phase at 2 uM after 48 hrs by propidium iodide satining based FACS analysis (reference value: 16.09%)", "assay_type": "functional"}, "A549 [24]": {"test_system": "A549", "assay": "Cell cycle arrest in human A549 cells assessed as accumulation at S phase at 1 uM after 48 hrs by propidium iodide satining based FACS analysis (reference value: 34.45%)", "assay_type": "functional"}, "A549 [25]": {"test_system": "A549", "assay": "Cell cycle arrest in human A549 cells assessed as accumulation at G2/M phase at 1 uM after 48 hrs by propidium iodide satining based FACS analysis (reference value: 16.09%)", "assay_type": "functional"}, "A549 [26]": {"test_system": "A549", "assay": "Cell cycle arrest in human A549 cells assessed as accumulation at G0/G1 phase at 0.5 uM after 48 hrs by propidium iodide satining based FACS analysis (reference value: 48.87%)", "assay_type": "functional"}, "[27]": {"biological_target": "T1, Epidermal growth factor receptor", "conditions": "A549, at 5 µM", "description": "Inhibition of EGF-induced EGFR phosphorylation at Tyrosine residue in human A549 cells at 5 uM preincubated for 2 hrs followed by EGF stimulation measured after 10 mins by Western blot analysis"}, "[28]": {"biological_target": "T1, Epidermal growth factor receptor", "conditions": "A549, at 5 µM", "remark": "listed apart in the source", "description": "Inhibition of EGF-induced EGFR phosphorylation at Y992 residue in human A549 cells at 5 uM preincubated for 2 hrs followed by EGF stimulation measured after 10 mins by Western blot analysis"}, "[29]": {"biological_target": "T1, Epidermal growth factor receptor", "conditions": "A549, at 5 µM", "remark": "listed apart in the source", "description": "Inhibition of EGF-induced EGFR activation in human A549 cells assessed as reduction in Akt phosphorylation at S473 residue at 5 uM preincubated for 2 hrs followed by EGF stimulation measured after 10 mins by Western blot analysis"}, "[30]": {"biological_target": "T1, Epidermal growth factor receptor", "conditions": "A549, at 5 µM", "remark": "listed apart in the source", "description": "Inhibition of EGF-induced EGFR activation in human A549 cells assessed as reduction in ERK1/2 phosphorylation at T202/Y204 residues at 5 uM preincubated for 2 hrs followed by EGF stimulation measured after 10 mins by Western blot analysis"}},
  "note": "Active and inactive are the calls of the source. No cut-off for these calls is given here.",
  "data": [
    {"smiles": "Fc1cccc(COc2ccc(Nc3ncnc4cc(OCCCN5CCOCC5)c(OCCCN5CCOCC5)cc34)cc2Cl)c1", "values": [
      {"measurement": "IC50", "setting": "HCC827", "result": 370, "unit": "nM"},
      {"measurement": "IC50", "setting": "NCI-H1975", "result": 4870, "unit": "nM"},
      {"measurement": "IC50", "setting": "SW480", "result": 3270, "unit": "nM"},
      {"measurement": "IC50", "setting": "[1]", "result": 7, "unit": "nM"},
      {"measurement": "IC50", "setting": "[2]", "result": "> 2000", "unit": "nM"},
      {"measurement": "IC50", "setting": "[3]", "result": 9.3, "unit": "nM"},
      {"measurement": "inhibition", "setting": "[4]", "result": "Active"},
      {"measurement": "Activity", "setting": "A549 [5]", "result": "Non-Toxic"},
      {"measurement": "Activity", "setting": "A549 [6]", "result": "Non-Toxic"},
      {"measurement": "inhibition", "setting": "[7]", "result": "inactive"},
      {"measurement": "inhibition", "setting": "[8]", "result": "Active"},
      {"measurement": "inhibition", "setting": "[9]", "result": "Active"},
      {"measurement": "viability at 4 µM", "setting": "A549 [10]", "result": 48.4, "unit": "%"},
      {"measurement": "Activity", "setting": "A549 [11]", "result": 14.81, "unit": "%"},
      {"measurement": "Activity", "setting": "A549 [12]", "result": 36.18, "unit": "%"},
      {"measurement": "Activity", "setting": "A549 [13]", "result": 8.52, "unit": "%"},
      {"measurement": "Activity", "setting": "A549 [14]", "result": 0.23, "unit": "%"},
      {"measurement": "viability at 2 µM", "setting": "A549 [15]", "result": 87.9, "unit": "%"},
      {"measurement": "Activity", "setting": "A549 [16]", "result": 0.31, "unit": "%"},
      {"measurement": "viability at 1 µM", "setting": "A549 [17]", "result": 92.3, "unit": "%"},
      {"measurement": "Activity", "setting": "A549 [18]", "result": 3.43, "unit": "%"},
      {"measurement": "Activity", "setting": "A549 [19]", "result": 0.4, "unit": "%"},
      {"measurement": "Activity", "setting": "A549 [20]", "result": 8.8, "unit": "%"},
      {"measurement": "Activity", "setting": "A549 [21]", "result": 58.45, "unit": "%"},
      {"measurement": "Activity", "setting": "A549 [22]", "result": 30.54, "unit": "%"},
      {"measurement": "Activity", "setting": "A549 [23]", "result": 10.56, "unit": "%"},
      {"measurement": "Activity", "setting": "A549 [24]", "result": 34.83, "unit": "%"},
      {"measurement": "Activity", "setting": "A549 [25]", "result": 11.69, "unit": "%"},
      {"measurement": "Activity", "setting": "A549 [26]", "result": 50.78, "unit": "%"},
      {"measurement": "inhibition", "setting": "[27]", "result": "Active"},
      {"measurement": "inhibition", "setting": "[28]", "result": "Active"},
      {"measurement": "inhibition", "setting": "[29]", "result": "Active"},
      {"measurement": "inhibition", "setting": "[30]", "result": "Active"}
    ]}
  ]
}
